In publication PMC11505200, “Exploring the 3,5-Dibromo-4,6-dimethoxychalcones and Their Flavone Derivatives as Dual α-Glucosidase and α-Amylase Inhibitors with Antioxidant and Anticancer Potential” (Antioxidants, 2024):
Where two headings read alike, the source gives them in different places.

What was measured:
[1] = Nitric oxide (NO) free radical scavenging assay (Griess reagent); settings: mean ± SD; 1-50 μM
Procedure: Different concentrations (1, 5, 10, 25 and 50 μM) of the test compounds and quercetin (reference standard) were prepared in DMSO. A mixture of the compound (5 μL), 10 mM sodium nitroprusside (20 μL) and the phosphate buffer (5 μL) were incubated at 25 °C in a 96-well plate. The plate was incubated for 2.5 h at 25 °C followed by the addition of the Griess reagent (1.00 g of sulphanilic acid + 0.10 g naphthylethylene diamine dihydrochloride, 20 μL). The mixtures were allowed to stand for 30 min. […] The IC50 and SD values were calculated using the Graph Pad Prism software.

Vero cells = test: Cytotoxicity, CellTiter-Blue cell viability assay; assay type: cell-based, African green monkey (Cercopithecus aethiops); settings: 24 h treatment, 1-100 μM
Procedure: (§1) The cells were maintained in Dulbecco’s Modified Eagle’s Medium (DMEM, Gibco, Carlsbad, CA, USA) supplemented with 10% fetal bovine serum (FBS) and 1% penicillin/streptomycin in culture flasks and incubated at 37 °C in 5% CO2. When the cells reached 85% confluency, they were detached using 2% trypsin. The cell count was performed using a hand-held automated cell counter (Scapter 3.0™, Merck, Burlington, MA, USA) and then seeded at 1 × 10^5 cells/well. The well-plates were incubated overnight to allow cell attachment. After 24 h, treatments were administered with different concentrations (1, 5, 10, 25, 50 and 100 μM) of the test compounds and the positive controls (quercetin and nintedanib). The mixtures were incubated for another 24 h and then 20 μL of the CellTiter-Blue (Cytek Biosciences, San Diago, CA, USA) solution (5 mg/mL) was added to all the wells. Fluorescence was measured at 560 nm excitation/590 nm emission using an Elisa microplate reader (ThermoFisher Scientific, Vario SkanFlash, Vantaa, Finland). The cell viability of the triplicate results was calculated using the GraphPad Prism software (Version 8, GraphPad Software Inc., San Diego, CA, USA) to fit the nonlinear regression dose–response curves to obtain the IC50 and standard deviation values.

MCF-7 cells = test: Cytotoxicity, CellTiter-Blue cell viability assay; assay type: cell-based, human; settings: 24 h treatment, 1-100 μM
Procedure: as §1

A549 cells = test: Cytotoxicity, CellTiter-Blue cell viability assay; assay type: cell-based, human; settings: 24 h treatment, 1-100 μM
Procedure: as §1

[2] = target: T1, α-glucosidase type 1 from Saccharomyces cerevisiae (Saccharomyces cerevisiae, UniProt P53341); test: biochemical; assay type: biochemical; settings: for selectivity index (SI = IC50(α-glucosidase)/IC50(α-amylase)): ratio of α-glucosidase to α-amylase IC50
T1 construct: purchased Merck Life Science (Pty) Ltd. (Sigma-Aldrich) G5003
T1 sequence (P53341 whole entry): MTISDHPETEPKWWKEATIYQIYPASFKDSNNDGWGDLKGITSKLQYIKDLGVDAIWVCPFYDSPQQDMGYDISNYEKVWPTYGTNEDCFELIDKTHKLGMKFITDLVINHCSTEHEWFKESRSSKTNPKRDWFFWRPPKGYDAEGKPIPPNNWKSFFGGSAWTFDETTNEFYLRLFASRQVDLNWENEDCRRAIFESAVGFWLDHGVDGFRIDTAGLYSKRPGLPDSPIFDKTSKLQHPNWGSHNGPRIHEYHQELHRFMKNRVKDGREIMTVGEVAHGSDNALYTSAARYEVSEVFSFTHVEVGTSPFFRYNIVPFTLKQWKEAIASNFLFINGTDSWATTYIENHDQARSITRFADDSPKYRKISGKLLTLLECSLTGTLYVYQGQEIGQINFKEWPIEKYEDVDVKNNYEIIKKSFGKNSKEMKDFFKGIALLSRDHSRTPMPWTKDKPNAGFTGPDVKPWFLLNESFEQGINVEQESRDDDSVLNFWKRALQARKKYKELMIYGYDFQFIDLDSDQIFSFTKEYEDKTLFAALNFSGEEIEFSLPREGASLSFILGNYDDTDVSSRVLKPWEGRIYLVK
Procedure: The assays and analyses were performed in triplicates following a method described in a previous study. […] A solution of α-glucosidase type 1 from Saccharomyces cerevisiae (0.48 u/mL, 17 μL), 100 mM phosphate buffer (pH 6.8; 50 μL) and the test sample in DMSO (17 μL) were incubated at 37 °C for 10 min. This pre-incubation was followed by addition of 2 mM p-nitrophenyl-α-D-glucopyranoside (PNP-G, 17 μL) to each of the wells containing reaction mixtures to initiate the reaction. The plate was then incubated for 30 min. at 37 °C. The five absorbance readings were recorded at a wavelength of 405 nm for each triplicate run using a Varioskan flash microplate spectrophotometer (Thermo Scientific, Waltham, MA, USA). The average values obtained from the readings were used to determine the IC50 and standard deviation values. The values were calculated by the nonlinear regression analysis using the Graph Pad Prism version 8.0.1 software (San Diego, CA, USA) and expressed as the mean SD of three distinct experiments.

α-amylase = target: T2, α-amylase (Homo sapiens, UniProt P04746); test: In vitro α-amylase inhibitory assay (α-Amylase Inhibitor Screening Kit); assay type: biochemical; settings: mean ± SD, triplicate; 1-50 μM
T2 construct: purchased Abcam ab283391
T2 sequence (P04746 16-511): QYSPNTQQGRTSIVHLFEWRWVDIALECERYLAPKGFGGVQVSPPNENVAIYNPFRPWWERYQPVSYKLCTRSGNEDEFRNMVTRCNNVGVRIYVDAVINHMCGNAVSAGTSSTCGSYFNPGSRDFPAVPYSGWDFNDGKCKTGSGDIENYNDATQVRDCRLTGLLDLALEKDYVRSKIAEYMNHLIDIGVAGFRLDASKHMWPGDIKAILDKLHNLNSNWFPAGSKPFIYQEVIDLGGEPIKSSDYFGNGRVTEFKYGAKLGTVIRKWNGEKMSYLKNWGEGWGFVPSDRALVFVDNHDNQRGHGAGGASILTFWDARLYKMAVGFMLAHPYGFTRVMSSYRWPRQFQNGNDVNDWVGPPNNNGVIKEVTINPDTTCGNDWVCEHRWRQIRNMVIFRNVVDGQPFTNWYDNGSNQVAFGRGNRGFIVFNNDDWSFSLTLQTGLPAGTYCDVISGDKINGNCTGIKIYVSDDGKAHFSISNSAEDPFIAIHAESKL
Procedure: The mixtures were incubated at 37 °C for 10 min. and the substrate prepared in the same fashion as the enzyme was added to the mixtures to initiate the reaction. The plate was then incubated at RT for 25 min. in the dark. Five different absorbance readings were recorded for each triplicate run at a wavelength of 405 nm using a Varioskan flash microplate spectrophotometer (Thermo Scientific, Waltham, MA, USA). The IC50 and SD values were calculated using the Graph Pad Prism software.

[3] = Metal ion chelation assay (UV-Vis spectrophotometry); assay type: physicochemical; settings: 60 μM in methanol with CuCl2, RT
Procedure: A solution of the test compound in methanol alone (60 μM, final concentration) or in the presence of CuCl2 or ZnCl2 was stirred at RT for 30 min. The absorption spectra were recorded at RT at wavelengths ranging from 200 to 600 nm using a Shimadzu UV/Vis spectrometer, model: UV-1800 240V (Shimadzu Europa GmbH, Albert-Han Strasse 6-10, 47269 Duisburg, Germany).

[4] = Chlorocebus sabaeus, Vero, 24 h
[5] = mean ± SD, triplicate, 1-50 μM, read-out: IC50 α-Glucosidase

For COc1c(Br)c(O)c(C(=O)/C=C/c2ccccc2)c(OC)c1Br [2a, (E)-1-(3,5-Dibromo-2-hydroxy-4,6-dimethoxyphenyl)-3-phenylprop-2-en-1-one], the IC50 [1] was 11 ± 0.01 µM, the IC50 (Vero cells; [4]) was 6.04 ± 0.54 µM and the IC50 (MCF-7 cells; Homo sapiens, MCF7, 24 h) was 4.12 ± 0.55 µM. For the same molecule, the IC50 (A549 cells; Homo sapiens, A549, 24 h) was 7.4 ± 0.67 µM, the IC50 [2] was 14.5 ± 0.01 µM and the “selectivity index (SI = IC50(α-glucosidase)/IC50(α-amylase))” value (“selectivity index” below) [2] was 1.99. It also gave an IC50 (α-amylase) of 7.3 ± 0.11 µM and a melting point of 106 to 108 °C.
Work on COc1c(Br)c(O)c(C(=O)/C=C/c2ccc(F)cc2)c(OC)c1Br [2b, (E)-1-(3,5-Dibromo-2-hydroxy-4,6-dimethoxyphenyl)-3-(4-fluorophenyl)prop-2-en-1-one] yielded an IC50 [1] of 6.5 ± 0.005 µM, an IC50 (Vero cells; [4]) of 25 ± 1.09 µM and an IC50 (MCF-7 cells; Homo sapiens, MCF7, 24 h) of 12.1 ± 0.72 µM. For the same molecule, the IC50 (A549 cells; Homo sapiens, A549, 24 h) was 18.7 ± 0.89 µM, the IC50 [2, 5] was 7.3 ± 0.004 µM and the “selectivity index” value [2] was 1.12. The IC50 (α-amylase) was 6.5 ± 0.07 µM and the melting point was 132 to 134 °C.
Work on COc1c(Br)c(O)c(C(=O)/C=C/c2ccc(Cl)cc2)c(OC)c1Br [2c, (E)-1-(3,5-Dibromo-2-hydroxy-4,6-dimethoxyphenyl)-3-(4-chlorophenyl)prop-2-en-1-one] yielded an IC50 [1] of 28 ± 0.003 µM, an IC50 (Vero cells; [4]) of 20.3 ± 1.01 µM and an IC50 (MCF-7 cells; Homo sapiens, MCF7, 24 h) of 15.1 ± 0.91 µM. The IC50 (A549 cells; Homo sapiens, A549, 24 h) was 9.68 ± 0.8 µM, the IC50 [2] was 12.3 ± 0.003 µM and the “selectivity index” value [2] was 0.68. It also gave an IC50 (α-amylase) of 18 ± 0.06 µM and a melting point of 150 to 152 °C.
With COc1ccc(/C=C/C(=O)c2c(O)c(Br)c(OC)c(Br)c2OC)cc1 [2d, (E)-1-(3,5-Dibromo-2-hydroxy-4,6-dimethoxyphenyl)-3-(4-methoxyphenyl)prop-2-en-1-one] the IC50 [1] was 9.5 ± 0.004 µM, the IC50 [2] was 16.3 ± 0.02 µM and the melting point was 155 to 158 °C.
In the case of COc1c(Br)c(O)c(C(=O)/C=C/c2ccc(C)cc2)c(OC)c1Br [2e, (E)-1-(3,5-Dibromo-2-hydroxy-4,6-dimethoxyphenyl)-3-(p-tolyl)prop-2-en-1-one], the IC50 [2] is reported as 27.4 ± 0.02 µM and the melting point is reported as 151 to 152 °C.
For COc1c(Br)c(O)c(C(=O)/C=C/c2ccc(C(C)C)cc2)c(OC)c1Br [2f, (E)-1-(3,5-Dibromo-2-hydroxy-4,6-dimethoxyphenyl)-3-(4-isopropylphenyl)prop-2-en-1-one], the IC50 [1] was 17.4 ± 0.015 µM, the IC50 [2] was 23.6 ± 0.1 µM and the melting point was 128 to 130 °C.
For COc1c(Br)c(OC)c2c(=O)cc(-c3ccccc3)oc2c1Br [3a, 6,8-Dibromo-5,7-dimethoxy-2-phenyl-4H-chromen-4-one], the IC50 (Vero cells) was 16.2 ± 0.91 µM, the IC50 (Vero cells; [4]) was 12.4 ± 0.97 µM and the IC50 (MCF-7 cells; Homo sapiens, MCF7, 24 h) was 8.5 ± 0.82 µM. For the same molecule, the IC50 (A549 cells) was 12.4 ± 0.97 µM, the IC50 (A549 cells; Homo sapiens, A549, 24 h) was 16.2 ± 0.91 µM and the IC50 [2] was 14.2 ± 0.005 µM. For the same molecule, the melting point was 216 to 218 °C.
Molecule COc1c(Br)c(OC)c2c(=O)cc(-c3ccc(F)cc3)oc2c1Br [3b, 6,8-Dibromo-2-(4-fluorophenyl)-5,7-dimethoxy-4H-chromen-4-one] has an IC50 [1] of 5.4 ± 0.002 µM, an IC50 [2, 5] of 19.5 ± 0.005 µM and a melting point of 288 to 289 °C.
In the case of COc1c(Br)c(OC)c2c(=O)cc(-c3ccc(Cl)cc3)oc2c1Br [3c, 6,8-Dibromo-2-(4-chlorophenyl)-5,7-dimethoxy-4H-chromen-4-ONE], the IC50 [1] is reported as 4.7 ± 0.02 µM, the “coordination of Cu^2+ (change of UV-Vis maxima)” value [3] is reported as “some coordination of 3c to the copper ion” and the IC50 (MCF-7 cells) is reported as 5.1 ± 0.61 µM. The IC50 (MCF-7 cells; Homo sapiens, MCF7, 24 h) was 6.96 ± 0.66 µM, the IC50 [2, 5] was 0.8 ± 0.002 µM and the melting point was 280 to 283 °C.
With COc1ccc(-c2cc(=O)c3c(OC)c(Br)c(OC)c(Br)c3o2)cc1 [3d, 6,8-Dibromo-5,7-dimethoxy-2-(4-methoxyphenyl)-4H-chromen-4-one] the IC50 [1] was 5.3 ± 0.005 µM, the IC50 [2, 5] was 15.2 ± 0.002 µM and the melting point was 233 to 236 °C.
With COc1c(Br)c(OC)c2c(=O)cc(-c3ccc(C)cc3)oc2c1Br [3e, 6,8-Dibromo-5,7-dimethoxy-2-(p-tolyl)-4H-chromen-4-one] the IC50 [1] was 13.3 ± 0.08 µM, the IC50 (Vero cells; [4]) was 9.45 ± 0.79 µM and the IC50 (MCF-7 cells; Homo sapiens, MCF7, 24 h) was 6.96 ± 0.66 µM. For the same molecule, the IC50 (A549 cells; Homo sapiens, A549, 24 h) was 6.42 ± 0.79 µM, the IC50 [2, 5] was 10.9 ± 0.007 µM and the IC50 (α-amylase) was 25.4 ± 0.04 µM. For the same molecule, the melting point was 205 to 206 °C.
Work on COc1c(Br)c(OC)c2c(=O)cc(-c3ccc(C(C)C)cc3)oc2c1Br [3f, 6,8-Dibromo-5,7-dimethoxy-2-(4-isopropylphenyl)-4H-chromen-4-one] yielded an IC50 [1] of 12.1 ± 0.07 µM, an IC50 (Vero cells; [4]) of 11.7 ± 1.02 µM and an IC50 (MCF-7 cells; Homo sapiens, MCF7, 24 h) of 10.7 ± 1.02 µM. For the same molecule, the IC50 (A549 cells; Homo sapiens, A549, 24 h) was 16.1 ± 1.15 µM, the IC50 [2, 5] was 5.6 ± 0.006 µM and the “selectivity index” value [2] was 0.2. For the same molecule, the IC50 (α-amylase) was 28 ± 0.06 µM and the melting point was 165 to 167 °C.
In the case of COC(=O)c1ccc2c(c1)NC(=O)/C2=C(\Nc1ccc(N(C)C(=O)CN2CCN(C)CC2)cc1)c1ccccc1 [Nintedanib, reference compound], the IC50 (Vero cells; [4]) is reported as 0.89 ± 0.18 µM, the IC50 (MCF-7 cells; Homo sapiens, MCF7, 24 h) is reported as 0.53 ± 0.11 µM and the IC50 (A549 cells; Homo sapiens, A549, 24 h) is reported as 0.74 ± 0.15 µM.
O=c1c(O)c(-c2ccc(O)c(O)c2)oc2cc(O)cc(O)c12 [Quercetin, reference compound] gave an IC50 [1] of 4.8 ± 0.01 µM, an IC50 (Vero cells; Chlorocebus sabaeus, Vero) of 45.6 ± 1.8 µM and an IC50 (MCF-7 cells; Homo sapiens, MCF7) of 35.4 ± 1.78 µM. The IC50 (A549 cells; Homo sapiens, A549) was 35.4 ± 1.78 µM.
